Laboratory results taken from ChEMBL document CHEMBL3885881, “DrugMatrix”.

Species: Rattus norvegicus
Assay: DrugMatrix - Regimen: Daily Repeat
Format: toxicity, organism-based, Sprague-Dawley
Design: regimen Daily Repeat, gender Male, age 6-8 weeks
Settings: in vivo, po, 15 mg/kg, route oral GAVAGE, dose level Low, vehicle .5 % CMC; for ABSOLUTE BASOPHIL / ABSOLUTE EOSINOPHIL / ABSOLUTE LYMPHOCYTE / ABSOLUTE MONOCYTE / ABSOLUTE SEGMENTED NEUTROPHIL / BASOPHIL / EOSINOPHIL / ERYTHROCYTE COUNT / HEMATOCRIT / HEMOGLOBIN / LEUKOCYTE COUNT / LYMPHOCYTE / MEAN CORPUSCULAR HEMOGLOBIN / MEAN CORPUSCULAR HEMOGLOBIN CONCENTRATION / MEAN CORPUSCULAR VOLUME / MONOCYTE / NEUTROPHIL / NUCLEATED RED BLOOD CELLS / PLATELET COUNT: tissue Blood; for ALANINE AMINOTRANSFERASE / ALBUMIN / ALKALINE PHOSPHATASE / ASPARTATE AMINOTRANSFERASE / BLOOD UREA NITROGEN / CARBON DIOXIDE / CHOLESTEROL / CREATINE PHOSPHOKINASE / CREATININE / GLUCOSE / LACTATE DEHYDROGENASE / LIPASE / PHOSPHORUS / SODIUM / TOTAL BILIRUBIN / TOTAL PROTEIN / URIC ACID: tissue Plasma

CC(C)(C)c1ccc(C(O)CCCN2CCC(C(O)(c3ccccc3)c3ccccc3)CC2)cc1 (configuration not stated) [TERFENADINE]
ABSOLUTE BASOPHIL (72 h, time 3 day): 0 CELLS/uL | ABSOLUTE EOSINOPHIL (72 h, time 3 day): 0 CELLS/uL | ABSOLUTE LYMPHOCYTE (72 h, time 3 day): 10879.67 CELLS/uL | ABSOLUTE MONOCYTE (72 h, time 3 day): 121.67 CELLS/uL | ABSOLUTE SEGMENTED NEUTROPHIL (72 h, time 3 day): 1165.33 CELLS/uL | BASOPHIL (72 h, time 3 day): 0% | EOSINOPHIL (72 h, time 3 day): 0% | ERYTHROCYTE COUNT (72 h, time 3 day): 5.45 x10E6/uL | HEMATOCRIT (72 h, time 3 day): 33.93% | HEMOGLOBIN (72 h, time 3 day): 12.77 G/DL | LEUKOCYTE COUNT (72 h, time 3 day): 12.17 x10E3/uL | LYMPHOCYTE (72 h, time 3 day): 89.33% | MEAN CORPUSCULAR HEMOGLOBIN (72 h, time 3 day): 23.43 pg | MEAN CORPUSCULAR HEMOGLOBIN CONCENTRATION (72 h, time 3 day): 37.63 G/DL | MEAN CORPUSCULAR VOLUME (72 h, time 3 day): 62.27 fL | MONOCYTE (72 h, time 3 day): 1% | NEUTROPHIL (72 h, time 3 day): 9.67% | NUCLEATED RED BLOOD CELLS (72 h, time 3 day): 0 /100WBC | PLATELET COUNT (72 h, time 3 day): 1158.33 x10E3/uL | ALANINE AMINOTRANSFERASE (72 h, time 3 day): 52.67 u/L | ALBUMIN (72 h, time 3 day): 4.13 G/DL | ALKALINE PHOSPHATASE (72 h, time 3 day): 451 u/L | ASPARTATE AMINOTRANSFERASE (72 h, time 3 day): 72 u/L | BLOOD UREA NITROGEN (72 h, time 3 day): 16.67 mg/dL | CARBON DIOXIDE (72 h, time 3 day): 22.67 mmol/L | CHOLESTEROL (72 h, time 3 day): 70 mg/dL | CREATINE PHOSPHOKINASE (72 h, time 3 day): 139.33 u/L | CREATININE (72 h, time 3 day): 0.18 mg/dL | GLUCOSE (72 h, time 3 day): 155.33 mg/dL | LACTATE DEHYDROGENASE (72 h, time 3 day): 130.33 u/L | LIPASE (72 h, time 3 day): 10.67 u/L | PHOSPHORUS (72 h, time 3 day): 13.47 mg/dL | SODIUM (72 h, time 3 day): 145.6 MEQ/L | TOTAL BILIRUBIN (72 h, time 3 day): 0.17 mg/dL | TOTAL PROTEIN (72 h, time 3 day): 6.1 G/DL | URIC ACID (72 h, time 3 day): 1.37 mg/dL | ABSOLUTE BASOPHIL (120 h, time 5 day): 0 CELLS/uL | ABSOLUTE EOSINOPHIL (120 h, time 5 day): 0 CELLS/uL | ABSOLUTE LYMPHOCYTE (120 h, time 5 day): 14283 CELLS/uL | ABSOLUTE MONOCYTE (120 h, time 5 day): 352.67 CELLS/uL | ABSOLUTE SEGMENTED NEUTROPHIL (120 h, time 5 day): 1897.67 CELLS/uL | BASOPHIL (120 h, time 5 day): 0% | EOSINOPHIL (120 h, time 5 day): 0% | ERYTHROCYTE COUNT (120 h, time 5 day): 5.72 x10E6/uL | HEMATOCRIT (120 h, time 5 day): 34.8% | HEMOGLOBIN (120 h, time 5 day): 13.17 G/DL | LEUKOCYTE COUNT (120 h, time 5 day): 16.53 x10E3/uL | LYMPHOCYTE (120 h, time 5 day): 86.67% | MEAN CORPUSCULAR HEMOGLOBIN (120 h, time 5 day): 23.03 pg | MEAN CORPUSCULAR HEMOGLOBIN CONCENTRATION (120 h, time 5 day): 37.83 G/DL | MEAN CORPUSCULAR VOLUME (120 h, time 5 day): 60.87 fL | MONOCYTE (120 h, time 5 day): 2% | NEUTROPHIL (120 h, time 5 day): 11.33% | NUCLEATED RED BLOOD CELLS (120 h, time 5 day): 0 /100WBC | PLATELET COUNT (120 h, time 5 day): 993 x10E3/uL | ALANINE AMINOTRANSFERASE (120 h, time 5 day): 51.33 u/L | ALBUMIN (120 h, time 5 day): 4.13 G/DL | ALKALINE PHOSPHATASE (120 h, time 5 day): 285 u/L | ASPARTATE AMINOTRANSFERASE (120 h, time 5 day): 91.33 u/L | BLOOD UREA NITROGEN (120 h, time 5 day): 16 mg/dL | CARBON DIOXIDE (120 h, time 5 day): 26.67 mmol/L | CHOLESTEROL (120 h, time 5 day): 66.67 mg/dL | CREATINE PHOSPHOKINASE (120 h, time 5 day): 518.33 u/L | CREATININE (120 h, time 5 day): 0.2 mg/dL | GLUCOSE (120 h, time 5 day): 156 mg/dL | LACTATE DEHYDROGENASE (120 h, time 5 day): 390.67 u/L | LIPASE (120 h, time 5 day): 10.67 u/L | PHOSPHORUS (120 h, time 5 day): 13.3 mg/dL | SODIUM (120 h, time 5 day): 144.33 MEQ/L | TOTAL BILIRUBIN (120 h, time 5 day): 0.1 mg/dL | TOTAL PROTEIN (120 h, time 5 day): 6 G/DL | URIC ACID (120 h, time 5 day): 1.43 mg/dL
